Source: patent publication US12419902B2, “Anti-viral and anti-tumoral compounds” (priority 2019, dated 2025)
In brackets after ≈: the same amount, converted by molar mass.

Legend:
Influenza A (H1N1) = experiment: microbe, parasite or virus in culture; format: cell-based
Influenza A (H5N1) = experiment: microbe, parasite or virus in culture; format: cell-based
Influenza B = experiment: microbe, parasite or virus in culture; format: cell-based
Zika virus [1] = conditions: nucleoside applied to cells, phosphorylated to ddhCTP; cited from earlier work
enterovirus-68 (EV-68) = format: cell-based
in vitro [2] = conditions: African green monkey
Zika virus [3] = format: cell-based
in vitro [4] = conditions: human
[5] = tested on: Rift Valley fever virus (RVFV); experiment: microbe, parasite or virus in culture; format: cell-based; conditions: Vero 76
RSV = experiment: microbe, parasite or virus in culture; format: cell-based; conditions: human respiratory syncytial virus, MA104

O=c1ccn([C@@H]2OC(CO)=C[C@H]2O)c(=O)[nH]1 [AB21649]
antiviral activity (in words) (Influenza A (H1N1)): exhibits antiviral activity | antiviral activity (in words) (Influenza A (H5N1)): exhibits antiviral activity | antiviral activity (in words) (Influenza B): exhibits antiviral activity

Nc1ccn([C@@H]2OC(CO)=C[C@H]2O)c(=O)n1 [AB21650, 3′-deoxy-3′,4′-didehydro cytidine]
replication of Zika virus (Zika virus [1]): directly inhibit replication of Zika virus | antiviral activity (in words) (enterovirus-68 (EV-68)): exhibits some activity

Nc1nc2c(ncn2[C@@H]2OC(CO)=CC2O)c(=O)[nH]1 (stereo partly drawn) [AB21651]
antiviral activity (in words) (Influenza A (H1N1)): exhibits antiviral activity | antiviral activity (in words) (Influenza A (H5N1)): exhibits antiviral activity

CC(C)S(=O)(=O)n1c(N)nc2ccc(/C(=N/O)c3ccccc3)cc21 [Enviroxime]
CC50 (in vitro [2]): 3.3 µg/mL (≈ 9.21 µM)

C#C[C@@]1(O)[C@H](O)[C@@H](CO)O[C@H]1n1ccc2c(N)ncnc21 [NITD008]
EC50 (Zika virus [3]): 1.8 µg/mL (≈ 6.2 µM)

CCOC(=O)c1ccc(OCCC2CCN(c3ccc(C)nn3)CC2)cc1 [Pirodavir]
CC50 (in vitro [4]): 4.3 µg/mL (≈ 11.6 µM)

NC(=O)c1ncn([C@@H]2O[C@H](CO)[C@@H](O)[C@H]2O)n1 [Ribavirin]
EC50 (Influenza A (H1N1); Influenza A virus, H1N1, MDCK): 4.6 µg/mL (≈ 18.8 µM) | EC50 [5]: 14 µg/mL (≈ 57.3 µM) | EC50 (Influenza A (H5N1); Influenza A virus, H5N1, MDCK): 1.8 µg/mL (≈ 7.37 µM) | EC50 (RSV): 7.3 µg/mL (≈ 29.9 µM) | EC50 (Influenza B; Influenza B virus, MDCK): 1.4 µg/mL (≈ 5.73 µM)
